Source: patent US9149038B2, “4-amino-6-(heterocyclic)picolinates and 6-amino-2-(heterocyclic)pyrimidine-4-carboxylates and their use as herbicides” (Dow AgroSciences LLC, priority 2013, dated 2015)
Like-named read-outs stand apart in the source and are kept apart here.

Tested on: Direct Seeded Rice and weed species
Test: Postemergence herbicidal activity in direct seeded rice, visual rating after 20-22 days and probit GR20/GR50/GR80/GR90 (Table 14)
Type: in vivo
Settings: for pest or weed control at 17.5 g/ha / pest or weed control at 35 g/ha / pest or weed control at 70 g/ha: post-emergence, 504 h, postemergence; for pest or weed control at 17.5 g/ha: 17.5 g ai/ha; for pest or weed control at 35 g/ha: 35 g ai/ha; for pest or weed control at 70 g/ha: 70 g ai/ha
Description: Herbicidal evaluations were made visually on a scale of 0 to 100 where 0 represents no activity and 100 represents complete plant death. Seeds or nutlets of the desired test plant species were planted in a soil matrix prepared by mixing a loam soil (43 percent silt, 19 percent clay, and 38 percent sand, with a pH of about 8.1 and an organic matter content of about 1.5 percent) and river sand in an 80 to 20 ratio. The soil matrix was contained in plastic pots with a surface area of 139.7 cm^2. When required to ensure good germination and healthy plants, a fungicide treatment and/or other chemical or physical treatment was applied. The plants were grown for 10-17 d in a greenhouse with an approximate 14-h photoperiod which was maintained at about 29° C. during the day and 26° C. during the night. Nutrients and water were added on a regular basis and supplemental lighting was provided with overhead metal halide 1000-Watt lamps as necessary. The plants were employed for testing when they reached the second or third true leaf stage. A weighed amount, determined by the highest rate to be tested, of each test compound was placed in 25 mL glass vials and dissolved in a volume of 97:3 v/v acetone-DMSO to obtain 12× stock solutions. […] The concentrated stock solutions were added to the spray solutions so that the final acetone and DMSO concentrations were 16.2% and 0.5%, respectively. Spray solutions were diluted to the appropriate final concentrations with the addition of 10 mL of an aqueous mixture of 1.5% (v/v) Agri-dex crop oil concentrate. The final spray solutions contained 1.25% (v/v) Agri-dex crop oil concentrate. Compound requirements are based upon a 12 mL application volume at a rate of 187 L/ha. Formulated compounds were applied to the plant material with an overhead Mandel track sprayer equipped with […] nozzles calibrated to deliver 187 L/ha over an application area of 0.503 square meters (m^2) at a spray height of 18 inches (43 cm) above average plant canopy height. Control plants were sprayed in the same manner with the solvent blank. The treated plants and control plants were placed in a greenhouse as described above and watered by sub-irrigation to prevent wash-off of the test compounds. After 20-22 days, the condition of the test plants, compared with that of the untreated plants, was determined visually and scored on a scale of 0 to 100 percent where 0 corresponds to no injury and 100 corresponds to complete kill and are presented as indicated in Table 4. By applying the well-accepted probit analysis as described by J. Berkson in Journal of the American Statistical Society, 48, 565 (1953) and by D. Finney in “Probit Analysis” Cambridge University Press (1952), herbicidal injury of a specific compound at various rates can be used to calculate GR20, GR50, GR80 and GR90 values, which are defined as growth reduction factors that correspond to the effective dose of herbicide required to provide plant growth reduction (GR) of 20 percent, 50 percent, 80 percent and 90 percent, respectively. Probit analysis was applied to data collected from multiple dose rates of individual compounds utilizing the procedures explained in the following examples. The data for some of the dose rates and analysis of all of the dose rates are captured in the following tables.

[1] = BRAPP (broadleaf signalgrass, Brachiaria platyphylla), read-out: Visual Growth Reduction (%) 21 Days After Application BRAPP
[2] = CYPDI (small-flower flatsedge, Cyperus difformis), read-out: Visual Growth Reduction (%) 21 Days After Application CYPDI
[3] = CYPES (yellow nutsedge, Cyperus esculentus), read-out: Visual Growth Reduction (%) 21 Days After Application CYPES
[4] = CYPIR (rice flatsedge, Cyperus iria), read-out: Visual Growth Reduction (%) 21 Days After Application CYPIR
[5] = DIGSA (large crabgrass, Digitaria sanguinalis), read-out: Visual Growth Reduction (%) 21 Days After Application DIGSA
[6] = ECHCG (barnyardgrass, Echinochloa crus-galli), read-out: Visual Growth Reduction (%) 21 Days After Application ECHCG
[7] = ECHCO (junglerice, Echinochloa colonum), read-out: Visual Growth Reduction (%) 21 Days After Application ECHCO
[8] = LEFCH (Chinese sprangletop, Leptochloa chinensis), read-out: Visual Growth Reduction (%) 21 Days After Application LEFCH
[9] = ORYSJ (Oryza sativa, rice crop), read-out: Visual Growth Reduction (%) 21 Days After Application ORYSJ
[10] = ORYSK (Oryza sativa, rice crop), read-out: Visual Growth Reduction (%) 21 Days After Application ORYSK
[11] = SCPJU (Japanese bulrush, Schoenoplectus juncoides Roxb.), read-out: Visual Growth Reduction (%) 21 Days After Application SCPJU
[12] = SEBEX (hemp sesbania, Sesbania exaltata), read-out: Visual Growth Reduction (%) 21 Days After Application SEBEX

For COC(=O)c1nc(-c2ccc3c(c2F)OC(F)(F)O3)cc(N)c1Cl [Compound 37, Methyl 4-amino-3-chloro-6-(2,2,4-trifluorobenzo-[d][1,3]dioxol-5-yl)picolinate], the “GR50 BRAPP” value (BRAPP (Brachiaria platyphylla), probit analysis, dose for 50 percent growth reduction) was 3 g ai/ha, the “GR80 BRAPP” value (BRAPP (Brachiaria platyphylla), probit analysis, dose for 80 percent growth reduction) was 15 g ai/ha and the “GR90 BRAPP” value (BRAPP (Brachiaria platyphylla), probit analysis, dose for 90 percent growth reduction) was 39 g ai/ha. The “GR50 CYPDI” value (CYPDI (Cyperus difformis), probit analysis, dose for 50 percent growth reduction) was 0.04 g ai/ha, the “GR80 CYPDI” value (CYPDI (Cyperus difformis), probit analysis, dose for 80 percent growth reduction) was 1 g ai/ha and the “GR90 CYPDI” value (CYPDI (Cyperus difformis), probit analysis, dose for 90 percent growth reduction) was 2 g ai/ha. The “GR50 CYPES” value (CYPES (Cyperus esculentus), probit analysis, dose for 50 percent growth reduction) was under 18 g ai/ha, the “GR80 CYPES” value (CYPES (Cyperus esculentus), probit analysis, dose for 80 percent growth reduction) was under 18 g ai/ha and the “GR90 CYPES” value (CYPES (Cyperus esculentus), probit analysis, dose for 90 percent growth reduction) was under 18 g ai/ha. The “GR50 CYPIR” value (CYPIR (Cyperus iria), probit analysis, dose for 50 percent growth reduction) was 6 g ai/ha, the “GR80 CYPIR” value (CYPIR (Cyperus iria), probit analysis, dose for 80 percent growth reduction) was 23 g ai/ha and the “GR90 CYPIR” value (CYPIR (Cyperus iria), probit analysis, dose for 90 percent growth reduction) was 46 g ai/ha. For the same compound, the “GR50 DIGSA” value (DIGSA (Digitaria sanguinalis), probit analysis, dose for 50 percent growth reduction) was 0.07 g ai/ha, the “GR80 DIGSA” value (DIGSA (Digitaria sanguinalis), probit analysis, dose for 80 percent growth reduction) was 2 g ai/ha and the “GR90 DIGSA” value (DIGSA (Digitaria sanguinalis), probit analysis, dose for 90 percent growth reduction) was 8 g ai/ha. The “GR50 ECHCG” value (ECHCG (Echinochloa crus-galli), probit analysis, dose for 50 percent growth reduction) was 0.33 g ai/ha, the “GR80 ECHCG” value (ECHCG (Echinochloa crus-galli), probit analysis, dose for 80 percent growth reduction) was 4 g ai/ha and the “GR90 ECHCG” value (ECHCG (Echinochloa crus-galli), probit analysis, dose for 90 percent growth reduction) was 17 g ai/ha. For the same compound, the “GR50 ECHCO” value (ECHCO (Echinochloa colonum), probit analysis, dose for 50 percent growth reduction) was 0.001 g ai/ha, the “GR80 ECHCO” value (ECHCO (Echinochloa colonum), probit analysis, dose for 80 percent growth reduction) was 0.2 g ai/ha and the “GR90 ECHCO” value (ECHCO (Echinochloa colonum), probit analysis, dose for 90 percent growth reduction) was 3 g ai/ha. For the same compound, the “GR50 LEFCH” value (LEFCH (Leptochloa chinensis), probit analysis, dose for 50 percent growth reduction) was 116 g ai/ha, the “GR80 LEFCH” value (LEFCH (Leptochloa chinensis), probit analysis, dose for 80 percent growth reduction) was 288 g ai/ha and the “GR90 LEFCH” value (LEFCH (Leptochloa chinensis), probit analysis, dose for 90 percent growth reduction) was 464 g ai/ha. The “GR20 ORYSJ” value (ORYSJ (Oryza sativa, rice crop), probit analysis, dose for 20 percent growth reduction) was 56 g ai/ha, the “GR20 ORYSK” value (ORYSK (Oryza sativa, rice crop), probit analysis, dose for 20 percent growth reduction) was 70 g ai/ha and the “GR50 SCPJU” value (SCPJU (Schoenoplectus juncoides Roxb.), probit analysis, dose for 50 percent growth reduction) was 0.0001 g ai/ha. For the same compound, the “GR80 SCPJU” value (SCPJU (Schoenoplectus juncoides Roxb.), probit analysis, dose for 80 percent growth reduction) was 0.0001 g ai/ha, the “GR90 SCPJU” value (SCPJU (Schoenoplectus juncoides Roxb.), probit analysis, dose for 90 percent growth reduction) was 0.0001 g ai/ha and the “GR50 SEBEX” value (SEBEX (Sesbania exaltata), probit analysis, dose for 50 percent growth reduction) was 2 g ai/ha. The “GR80 SEBEX” value (SEBEX (Sesbania exaltata), probit analysis, dose for 80 percent growth reduction) was 15 g ai/ha, the “GR90 SEBEX” value (SEBEX (Sesbania exaltata), probit analysis, dose for 90 percent growth reduction) was 47 g ai/ha and the pest or weed control at 17.5 g/ha [1] was 60 to 74%. It also gave a pest or weed control at 35 g/ha [1] of 85 to 94%, a pest or weed control at 70 g/ha [1] of 95 to 100% and a pest or weed control at 17.5 g/ha [2] of 95 to 100%. It also gave a pest or weed control at 35 g/ha [2] of 95 to 100%, a pest or weed control at 70 g/ha [2] of 95 to 100% and a pest or weed control at 17.5 g/ha [3] of 75 to 84%. For the same compound, the pest or weed control at 35 g/ha [3] was 85 to 94%, the pest or weed control at 70 g/ha [3] was 95 to 100% and the pest or weed control at 17.5 g/ha [4] was 85 to 94%. It also gave a pest or weed control at 35 g/ha [4] of 45 to 59%, a pest or weed control at 70 g/ha [4] of 95 to 100% and a pest or weed control at 17.5 g/ha [5] of 85 to 94%. It also gave a pest or weed control at 35 g/ha [5] of 95 to 100%, a pest or weed control at 70 g/ha [5] of 95 to 100% and a pest or weed control at 17.5 g/ha [6] of 85 to 94%. It also gave a pest or weed control at 35 g/ha [6] of 85 to 94%, a pest or weed control at 70 g/ha [6] of 95 to 100% and a pest or weed control at 17.5 g/ha [7] of 85 to 94%. For the same compound, the pest or weed control at 35 g/ha [7] was 95 to 100%, the pest or weed control at 70 g/ha [7] was 95 to 100% and the pest or weed control at 17.5 g/ha [8] was 0 to 29%. It also gave a pest or weed control at 35 g/ha [8] of 0 to 29%, a pest or weed control at 70 g/ha [8] of 45 to 59% and a pest or weed control at 17.5 g/ha [9] of 0 to 29%. The pest or weed control at 35 g/ha [9] was 0 to 29%, the pest or weed control at 70 g/ha [9] was 30 to 44% and the pest or weed control at 17.5 g/ha [10] was 0 to 29%. The pest or weed control at 35 g/ha [10] was 0 to 29%, the pest or weed control at 70 g/ha [10] was 0 to 29% and the pest or weed control at 17.5 g/ha [11] was 95 to 100%. For the same compound, the pest or weed control at 35 g/ha [11] was 95 to 100%, the pest or weed control at 70 g/ha [11] was 95 to 100% and the pest or weed control at 17.5 g/ha [12] was 75 to 84%. For the same compound, the pest or weed control at 35 g/ha [12] was 85 to 94% and the pest or weed control at 70 g/ha [12] was 95 to 100%.
